From PMC3818835, “What Goes around Comes around-A Comparative Study of the Influence of Chemical Modifications on the Antimicrobial Properties of Small Cyclic Peptides” (Pharmaceuticals, 2013)
≈ marks a conversion by molar mass, not a printed value. Peptide text beside a SMILES is read from it.

Assays:
B. subtilis DSM 347 = type: cell-based; conditions: DSM 347, 18 h
Experimental: (§1) The minimal inhibitory concentration (MIC) of the cyclic hexapeptides was tested against Gram-negative E. coli DH5α and Gram-positive B. subtilis DSM 347 using a microdilution technique in 96 well microtiter plates as described previously. Briefly, cells from an overnight culture were inoculated 1:100 in LB medium, grown to mid log phase (OD600 0.4 ± 0.1) and adjusted to 5 × 10^5 cells/well. Final peptide concentrations ranged from 0.05 µM to 100 µM (2-fold dilutions) and were tested in triplicates in at least three independent experiments. The MIC was determined after 18 h of incubation at 37 °C, 180 rpm being the lowest peptide concentration at which no visible bacterial growth can be detected photometrically (A600, Safire Microplate Reader, Tecan, Männedorf, Germany).

E. coli DH5α = type: cell-based; conditions: 18 h
Experimental: as §1

human erythrocytes = type: cell-based; conditions: pH 7.4
Experimental: The lytic effect of selected peptides upon human erythrocytes was determined as described before. Briefly, cells were washed thoroughly in Tris buffer (10 mM Tris, 150 mM NaCl, pH 7.4). Suspensions with 2.5 × 10^8 cells/mL were incubated with peptides at a final concentration of 100 µM for 30 min at 37 °C. After centrifugation, 0.6% NH4OH was added to an aliquot of the supernatant and hemoglobin absorption (A) was measured at 540 nm (Jasco V-550). Whole cell suspensions exposed to NH4OH were used as positive control (A100%) and preparations without peptide served as negative control (A0%), respectively. Data were collected in three independent experiments.

[1] = Hydrophobicity: retention time tR by reversed phase HPLC; type: physicochemical; conditions: chromatographic, RP-HPLC ProntoSil 300-5-C18-H (250 × 4.6 mm, 5 µm); peptide 1 mg/mL in phase A (0.1% TFA in water); B 0.1% TFA in 80% acetonitrile; linear gradient 5%–95% B over 40 min at 22 °C; used as a measure of hydrophobicity
Experimental: The retention time tR of the cyclic hexapeptides was determined by HPLC on a Jasco LC-2000Plus using a ProntoSil 300-5-C18-H column (250 × 4.6 mm, 5 µm) (Bischoff Chromatography). Peptide concentration was 1 mg/mL in mobile phase A (0.1% TFA in deionized water), mobile phase B consisted of 0.1% TFA in 80% acetonitrile in deionized water. For chromatographic analyses a linear gradient of 5%–95% phase B over 40 min at 22 °C was applied.
To investigate the influence of fluorescent label modification and amino acid substitution on the hydrophobicity/amphipathicity of the cyclic hexapeptide derivatives, we determined the retention time tR by reversed phase HPLC (Figure 2). The method monitors the retention of compounds by the hydrophobic HPLC stationary phase. Differences in tR reflect differences in the effective hydrophobicity of the molecule which is related to the intrinsic hydrophobicity of the individual residues and their ability to form hydrophobic domains for interaction with the HPLC matrix. At the same time, hydrophilic residues will locate at the opposite side of the molecule. Reduction in the size or positioning of cationic residues next to the hydrophobic molecular surface area would reduce amphipathicity. tR-measurements have successfully been applied to characterize amphipathic helices, β-structured peptides and different sets of our small cyclic R-, W-rich peptides.

eukaryotic cells = system: eukaryotic cells; design: method as in PMID 15248771; conditions: cited from earlier work

N=C(N)NCCC[C@@H]1NC(=O)[C@H](CCCNC(=N)N)NC(=O)[C@H](Cc2c[nH]c3ccccc23)NC(=O)[C@H](Cc2ccccc2)NC(=O)[C@H](Cc2c[nH]c3ccccc23)NC(=O)[C@H](CCCNC(=N)N)NC1=O [cWFW] (cyclo(FWRRRW); ring closure inferred)
MIC B. subtilis DSM 347 (B. subtilis DSM 347): 3 µM (≈ 2.96 µg/mL)
MIC E. coli DH5α (E. coli DH5α): 3 µM (≈ 2.96 µg/mL)
Hemolysis at 100 µM (human erythrocytes): 4%
Retention Time tR [1]: 17.67 min
Toxicity towards eukaryotic cells (eukaryotic cells): no toxicity towards eukaryotic cells could be detected
